Data as given in PubChem BioAssay AID330 (DTP/NCI, 2004).
“And” between values parts separate entries of the source, which are not always exact repeats. Equal entries are not always repeated. Inconclusive results and toxic doses are left out.

Tested on: P388 leukemia ip, CD2F1 mice, survival T/C
Test: NCI In Vivo Anticancer Drug Screen. Data for tumor model P388 Leukemia (intraperitoneal) in CD2F1 (CDF1) mice
Conditions: endpoint: median survival time, higher = longer survival
Summary of the method: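 Mice carrying the transplanted tumor received test compound or vehicle. Survival was recorded in each group, and the value is the treated-group measurement divided by that of the vehicle-treated control group.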

[1] = dose: 50.0 mg/kg/injection, schedule: Q01DX005 (ip), vehicle: saline with Tween-80
[2] = dose: 100.0 mg/kg/injection, schedule: Q01DX005 (ip), vehicle: saline with Tween-80
[3] = dose: 200.0 mg/kg/injection, schedule: Q01DX005 (ip), vehicle: saline with Tween-80
[4] = dose: 100.0 mg/kg/injection, schedule: Q04DX003 (ip), vehicle: saline
[5] = dose: 200.0 mg/kg/injection, schedule: Q04DX003 (ip), vehicle: saline
[6] = dose: 15.0 mg/kg/injection, schedule: Q01DX005 (ip), vehicle: saline with Tween-80
[7] = dose: 60.0 mg/kg/injection, schedule: Q01DX005 (ip), vehicle: saline with Tween-80
[8] = dose: 120.0 mg/kg/injection, schedule: Q01DX005 (ip), vehicle: saline with Tween-80
[9] = dose: 240.0 mg/kg/injection, schedule: Q01DX005 (ip), vehicle: saline with Tween-80
[10] = dose: 50.0 mg/kg/injection, schedule: Q01DX009 (ip), vehicle: saline with Tween-80
[11] = dose: 100.0 mg/kg/injection, schedule: Q01DX009 (ip), vehicle: saline with Tween-80
[12] = dose: 50.0 mg/kg/injection, schedule: Q01DX009 (ip), vehicle: Klucel (hydroxypropylcellulose) (HPC)
[13] = dose: 100.0 mg/kg/injection, schedule: Q01DX009 (ip), vehicle: Klucel (hydroxypropylcellulose) (HPC)
[14] = dose: 200.0 mg/kg/injection, schedule: Q01DX009 (ip), vehicle: Klucel (hydroxypropylcellulose) (HPC)
[15] = dose: 50.0 mg/kg/injection, schedule: Q01DX009 (ip), vehicle: saline
[16] = dose: 100.0 mg/kg/injection, schedule: Q01DX009 (ip), vehicle: saline
[17] = dose: 200.0 mg/kg/injection, schedule: Q01DX009 (ip), vehicle: saline

SMILES: OCC[Se][Se]CCO
- T/C (dose: 1.25 mg/kg/injection, schedule: Q01DX009 (ip), vehicle: Klucel (hydroxypropylcellulose) (HPC)): 103 % of control
- T/C (dose: 2.5 mg/kg/injection, schedule: Q01DX009 (ip), vehicle: Klucel (hydroxypropylcellulose) (HPC)): 100 % of control
- T/C (dose: 5.0 mg/kg/injection, schedule: Q01DX009 (ip), vehicle: Klucel (hydroxypropylcellulose) (HPC)): 103 % of control

SMILES: N=c1nc(-c2ccccc2)c(-c2ccccc2)nn1CC(=O)c1ccccc1
- T/C (dose: 50.0 mg/kg/injection, schedule: Q01DX005 (ip), vehicle: Klucel (hydroxypropylcellulose) (HPC)): 112 % of control
- T/C (dose: 100.0 mg/kg/injection, schedule: Q01DX005 (ip), vehicle: Klucel (hydroxypropylcellulose) (HPC)): 101 % of control
- T/C (dose: 200.0 mg/kg/injection, schedule: Q01DX005 (ip), vehicle: Klucel (hydroxypropylcellulose) (HPC)): 94 % of control

SMILES: CCOc1c(N=Nc2ccc(OC)cc2)c(-c2ccccc2)nn1C(N)=S
- T/C [1]: 100 % of control
- T/C [2]: 100 % of control
- T/C [3]: 102 % of control

SMILES: Cn1cnc2cc3c(cc2c1=O)nc1n3CCCC1
- T/C [4]: 102 % of control
- T/C [5]: 95 % of control

SMILES: CCOC(Cn1nc(SC)nc1N)OCC
- T/C (dose: 100.0 mg/kg/injection, schedule: Q04DX002 (ip), vehicle: water): 108 % of control
- T/C (dose: 200.0 mg/kg/injection, schedule: Q04DX002 (ip), vehicle: water): 104 % of control
- T/C (dose: 400.0 mg/kg/injection, schedule: Q04DX002 (ip), vehicle: water): 109 % of control

SMILES: CC(=O)Nc1ccc(SSc2ccc(NC(C)=O)c3cccnc23)c2ncccc12
- T/C (dose: 0.78 mg/kg/injection, schedule: Q01DX005 (ip), vehicle: saline with Tween-80): 91 % of control
- T/C (dose: 1.56 mg/kg/injection, schedule: Q01DX005 (ip), vehicle: saline with Tween-80): 91 % of control
- T/C (dose: 3.13 mg/kg/injection, schedule: Q01DX005 (ip), vehicle: saline with Tween-80): 90 % of control
- T/C (dose: 12.5 mg/kg/injection, schedule: Q01DX005 (ip), vehicle: saline with Tween-80): 86 % of control
- T/C (dose: 25.0 mg/kg/injection, schedule: Q01DX005 (ip), vehicle: saline with Tween-80): 95 % of control
- T/C [1]: 115 % of control

SMILES: COc1ccc(N/C(=C/C#N)c2ccccc2)cc1
- T/C (dose: 100.0 mg/kg/injection, schedule: Q01DX001 (ip), vehicle: saline with Tween-80): 100 % of control
- T/C (dose: 200.0 mg/kg/injection, schedule: Q01DX001 (ip), vehicle: saline with Tween-80): 99 % of control
- T/C (dose: 400.0 mg/kg/injection, schedule: Q01DX001 (ip), vehicle: saline with Tween-80): 95 % of control

SMILES: CCc1ccc(O)c(CN2CCN(Cc3cc(CC)ccc3O)CC2)c1
- T/C [6]: 89 % of control
- T/C (dose: 30.0 mg/kg/injection, schedule: Q01DX005 (ip), vehicle: saline with Tween-80): 86 % of control

SMILES: CC(=O)OCC1OC(OC2C=C(O[Si](C)(C)C)C[C@H]3C(=O)C=CC(=O)[C@@H]23)C(OC(C)=O)C(OC(C)=O)C1OC(C)=O (stereo partly specified)
- T/C (dose: 7.5 mg/kg/injection, schedule: Q01DX005 (ip), vehicle: saline with Tween-80): 98 % of control
- T/C [6]: 98 % of control
- T/C [7]: 98 % of control and 102 % of control

SMILES: CCCCCC/C=C\C(=O)O[C@H]1C(=O)O[C@@H]2C[C@H]3C(C)=C(O)C(=O)C[C@]3(C)[C@H]3[C@@H](O)[C@H](O)[C@@]4(C(=O)OC)OC[C@]32[C@@H]14
- T/C (dose: 0.75 mg/kg/injection, schedule: Q01DX005 (ip), vehicle: Klucel (hydroxypropylcellulose) (HPC)): 105 % of control
- T/C (dose: 1.5 mg/kg/injection, schedule: Q01DX005 (ip), vehicle: Klucel (hydroxypropylcellulose) (HPC)): 111 % of control
- T/C (dose: 3.0 mg/kg/injection, schedule: Q01DX005 (ip), vehicle: Klucel (hydroxypropylcellulose) (HPC)): 112 % of control
- T/C (dose: 6.0 mg/kg/injection, schedule: Q01DX005 (ip), vehicle: Klucel (hydroxypropylcellulose) (HPC)): 116 % of control

SMILES: CC(C)(O)C(=O)N/N=C/c1ccc(Cl)cc1
- T/C [7]: 101 % of control
- T/C [8]: 99 % of control
- T/C [9]: 100 % of control

SMILES: COC(=O)/C(C1=C(Br)C(=O)C(C)=C(Br)C1=O)=C1/CCCN1
- T/C (dose: 9.37 mg/kg/injection, schedule: Q01DX005 (ip), vehicle: Klucel (hydroxypropylcellulose) (HPC)): 112 % of control
- T/C (dose: 9.37 mg/kg/injection, schedule: Q04DX002 (ip), vehicle: Klucel (hydroxypropylcellulose) (HPC)): 101 % of control
- T/C (dose: 18.75 mg/kg/injection, schedule: Q01DX005 (ip), vehicle: Klucel (hydroxypropylcellulose) (HPC)): 117 % of control
- T/C (dose: 18.75 mg/kg/injection, schedule: Q04DX002 (ip), vehicle: Klucel (hydroxypropylcellulose) (HPC)): 92 % of control
- T/C (dose: 37.5 mg/kg/injection, schedule: Q01DX005 (ip), vehicle: Klucel (hydroxypropylcellulose) (HPC)): 112 % of control
- T/C (dose: 37.5 mg/kg/injection, schedule: Q04DX002 (ip), vehicle: Klucel (hydroxypropylcellulose) (HPC)): 100 % of control
- T/C (dose: 75.0 mg/kg/injection, schedule: Q04DX002 (ip), vehicle: Klucel (hydroxypropylcellulose) (HPC)): 104 % of control

SMILES: Cc1oc(NCc2ccccc2)c(C#N)c1C
- T/C (dose: 50.0 mg/kg/injection, schedule: Q01DX009 (ip), vehicle: saline + alcohol): 105 % of control
- T/C (dose: 100.0 mg/kg/injection, schedule: Q01DX009 (ip), vehicle: saline + alcohol): 90 % of control
- T/C (dose: 200.0 mg/kg/injection, schedule: Q01DX009 (ip), vehicle: saline + alcohol): 91 % of control

SMILES: COc1ccc(C(=O)NO)cc1
- T/C [10]: 109 % of control
- T/C [11]: 102 % of control
- T/C (dose: 200.0 mg/kg/injection, schedule: Q01DX009 (ip), vehicle: saline with Tween-80): 109 % of control
- T/C (dose: 400.0 mg/kg/injection, schedule: Q01DX009 (ip), vehicle: saline with Tween-80): 115 % of control

SMILES: c1ccc2c(c1)ccc1c(NCCCCCCNc3c4ccccc4nc4c3ccc3ccccc34)c3ccccc3nc12
- T/C [12]: 93 % of control
- T/C [13]: 96 % of control
- T/C [14]: 105 % of control

SMILES: O=S(=O)(O)c1ccc(N=Nc2c(S(=O)(=O)O)cc3cc(S(=O)(=O)O)cc(O)c3c2O)cc1
- T/C [15]: 93 % of control
- T/C [16]: 99 % of control
- T/C [17]: 106 % of control

SMILES: CCC[CH2][Sn]([CH3])([CH3])[CH2]CCN(C)C
- T/C [15]: 98 % of control
- T/C [16]: 98 % of control
- T/C [17]: 88 % of control

SMILES: CCCCCc1nnc2n1N=C(c1ccc(Cl)cc1)CS2
- T/C [7]: 100 % of control
- T/C [8]: 92 % of control
- T/C [9]: 91 % of control

SMILES: O=C1C(=O)c2ccccc2C(O)=C1Sc1ccc2ccccc2c1
- T/C (dose: 3.13 mg/kg/injection, schedule: Q01DX009 (ip), vehicle: saline with Tween-80): 100 % of control
- T/C (dose: 6.25 mg/kg/injection, schedule: Q01DX009 (ip), vehicle: saline with Tween-80): 99 % of control
- T/C (dose: 12.5 mg/kg/injection, schedule: Q01DX009 (ip), vehicle: saline with Tween-80): 95 % of control

SMILES: Cc1cc(N/N=C/c2cccnc2)c2ccccc2n1
- T/C [12]: 94 % of control
- T/C [13]: 100 % of control
- T/C [14]: 98 % of control

SMILES: CSc1nccn2cnnc12
- T/C (dose: 100.0 mg/kg/injection, schedule: Q01DX001 (ip), vehicle: Klucel (hydroxypropylcellulose) (HPC)): 101 % of control
- T/C (dose: 200.0 mg/kg/injection, schedule: Q01DX001 (ip), vehicle: Klucel (hydroxypropylcellulose) (HPC)): 104 % of control
- T/C (dose: 400.0 mg/kg/injection, schedule: Q01DX001 (ip), vehicle: Klucel (hydroxypropylcellulose) (HPC)): 101 % of control

SMILES: Nc1nc(-c2cccc3ccccc23)cc2ccccc12
- T/C (dose: 12.5 mg/kg/injection, schedule: Q01DX009 (ip), vehicle: water): 124 % of control
- T/C (dose: 100.0 mg/kg/injection, schedule: Q01DX009 (ip), vehicle: water): 150 % of control
- T/C (dose: 200.0 mg/kg/injection, schedule: Q01DX009 (ip), vehicle: water): 166 % of control

SMILES: OC1OCC(COc2ccc(Cl)cc2)OC1O (stereo unspecified)
- T/C [7]: 108 % of control and 118 % of control
- T/C [8]: 111 % of control
- T/C [9]: 123 % of control

SMILES: CN(C)c1ccc2c(Oc3ccccc3)cc(N)nc2c1
- T/C [1]: 94 % of control
- T/C [2]: 92 % of control
- T/C [3]: 92 % of control

SMILES: COc1cccc(CSCC(N)C(=O)O)c1 (stereo unspecified)
- T/C [1]: 104 % of control
- T/C [2]: 104 % of control
- T/C [3]: 90 % of control

SMILES: CCOC(=O)Oc1ccc(/C=N/NC(N)=S)nc1
- T/C [10]: 163 % of control
- T/C [11]: 93 % of control

SMILES: O=C1CCCC1C(=S)S (stereo unspecified)
- T/C [4]: 102 % of control
- T/C [5]: 102 % of control
